Test system: normal human bronchial epithelial cells (LHS-9)
Assay: Cellular fluorescence imaging of cells incubated with OVG's or free ICG
Assay type: cell-based
Conditions: 2 hr post-incubation; ICG 10 μg/ml
Procedure: The cells were cultured for 24 hours in serum free culture medium supplied by the commercial vendor. […] An optical filter that allowed transmission of NIR light greater than 780 nm was used to capture the fluorescent signal onto a CCD camera.

## CC1(C)C(/C=C/C=C/C=C/C=C2\N(CCCCS(=O)(=O)O)c3ccc4ccccc4c3C2(C)C)=[N+](CCCCS(=O)(=O)[O-])c2ccc3ccccc3c21 [ICG, indocyanine green]
  localization in cells (confocal fluorescent images): remains mostly localized to the “rim” of the cells

Reference: patent US20110311455A1, “EN[…] GUIDED IMAGING AND […]” (THE REGENTS OF THE UNIVERSITY OF CALIFORNIA, priority 2008, published 2011)
